Source: PMC7156458, “Synthetic biology based construction of biological activity-related library of fungal decalin-containing diterpenoid pyrones” (Nature Communications, 2020)
Several values for one entry are separate records, joined by “and”; a condition that tells them apart may be missing. Equal values may be shown once. Read-outs that look alike come from different tables or passages of the source.

What was measured:
MCF-7 cells [1] = assay: mammosphere formation assay; format: cell-based, human; conditions: MCF-7, 5 μM, 7 days; for MFE (%) ave: mean of 3, control 0.87; for MFE (control = 1) ave: relative to control = 1; for MFE (%): single replicates
Protocol: We also evaluated antiproliferative activity against cancer stem cells (CSCs), which are a small sub-population in tumour bulk identified in most cancer cells and clinical samples[52]. CSCs have been a major problem in cancer therapy because they are responsible for recurrence, metastasis and drug resistance to chemotherapeutic agents that affect proliferative cells[53]–[56]. Anti-CSC activity was evaluated by the inhibition of sphere-forming ability, a well-studied method to enrich the CSC-like population, and selective cytotoxicity against one of the most reliable CSC markers, aldehyde dehydrogenase (ALDH)-positive cells. […] Low-toxicity 16 was also added as a negative control. […] We next evaluated the three DDPs that inhibited mammosphere formations against ALDH-positive cells, a functional marker for breast CSCs. MCF-7 cells were treated with 1 μM of 11, 12 or 22, and the ALDH-positive cell population was analysed by using a fluorescence activated cell sorter (Supplementary Fig. 46b). […] Thus, for the first time, we successfully found DDPs with potent antiproliferative effects on the CSC-like population in MCF-7 cells, which may lead to new anti-CSC drugs.
Fig. 5 DDPs show anti-CSC activity in breast cancer cell line MCF-7. a Effect of DDPs on mammosphere formation. After the cells were cultured in the presence of 5 μM DDPs for 7 days, the number of mammospheres was microscopically counted and the percentage of mammosphere-forming cells was determined as mammosphere-forming efficiency (MFE; %). Data represent mean ± s.d. from three independent replicate experiments. P-values were calculated by a two-sided unpaired Student’s t-test, compared with control. b Micrographs show representative images of mammosphere formation from three independent replicate experiments using compound 11, 12, 16, 22. The scale bar, […]. c Effect of DDPs (1 μM, 3 days) on ALDH-positive cells in MCF-7 cells. Data represent mean ± s.d. from three independent replicate experiments. P-values were calculated by a two-sided unpaired Student’s t-test, compared with control. d Dose-dependent effect of compound 12 on ALDH-positive cells in MCF-7 cells. Data represent mean ± s.d. from three independent replicate experiments. P-values were calculated by a two-sided unpaired Student’s t-test. Source data underlying Fig. 5a, c, d are provided in a Source Data file.

MCF-7 cells [2] = assay: cell cytotoxic effects against MCF-7 cells (72 h), A490; format: cell-based, human; conditions: MCF-7, 72 h; for viability at 0.1 µM / viability at 1 µM / viability at 10 µM: Homo sapiens, MCF7, 72 h, read-out: A490 (control =1) ave
Protocol: !" ' ' '! !" ' ' '! !" ' ' '!!" ' ' '!!" ' ' '!!" ' ' '!!" ' ' '!!" ' ' '! !" ' ' '! !" ' ' '! !" ' ' '! !"#$
( % ) * '! '' '# '+ '$ '( '%
! " # $ %& %% %' %( %) %! %"
!" ' ' '! !" ' ' '!!" ' ' '!!" ' ' '!!" ' ' '!!" ' ' '!!" ' ' '! !" ' ' '! !" ' ' '! !" ' ' '! !" ' ' '! […]
Supplementary Fig. 46. a, Cell cytotoxic effects of DDPs against MCF-7 cells (72 h).
dose dependent cytotoxic effects against MCF-7 cells were tested their inhibitory activity against mammosphere
formation. Compound in blue (16) was also performed mammosphere assay as negative control. Data represent
mean±s.d. from three independent replicate experiments. […]
Source data underlying Supplementary Figure 46a are provided in a Source Data file. […]

MAGI cells = assay: cytotoxicity in the anti-HIV assay (CC50); format: cell-based
Text: (§1) We examined the inhibitory activities of DDPs against various species of bacteria (both gram-negative and gram-positive bacteria), fungi and viruses. […] In contrast, preliminary screening of the DDPs for anti-viral agents with hepatitis B virus (HBV), measles virus (MV), Epstein-Barr virus (EBV), herpes simplex virus (HSV) and human immunodeficiency virus-1 (HIV-1) indicated their selective inhibition of HIV.
Policy information about cell lines […]
HeLa-CD4-LTR/ !-galactosidase (MAGI) cells provided by Dr. J. Overbaugh through the NIH AIDS Research and Reference […]
MAGI cells were authenticated by the NIH.
Mycoplasma contamination All the cell lines tested negative for mycoplasma contamination.
Commonly misidentified lines No commonly mis-identified cell lines. […]

[3] = tested on: human immunodeficiency virus-1 (HIV-1); assay: anti-HIV MAGI assay; format: cell-based; conditions: anti-HIV
Text: as §1

[4] = 0.1 µM (DMSO 0.002%), control 1.064
[5] = 1 µM (DMSO 0.02%), control 1.104
[6] = 10 µM (DMSO 0.2%), control 1.049

Structure (SMILES)	MFE (%) ave (MCF-7 cells [1])	MFE (control = 1) ave (MCF-7 cells [1])	MFE (%) (MCF-7 cells [1])	viability at 0.1 µM (MCF-7 cells [2]; 0.1 µM (DMSO 0.002%))	viability at 1 µM (MCF-7 cells [2]; 1 µM (DMSO 0.02%))	viability at 10 µM (MCF-7 cells [2]; 10 µM (DMSO 0.2%))	A490 ave (MCF-7 cells [2]; [4])	A490 ave (MCF-7 cells [2]; [5])	A490 ave (MCF-7 cells [2]; [6])	other results
COc1cccc2c1C(=O)c1c(O)c3c(c(O)c1C2=O)C[C@@](O)(C(=O)CO)C[C@@H]3O[C@H]1C[C@H](N)[C@H](O)[C@H](C)O1 [Dox, doxorubicin, reference compound]	0.58%	0.67	0.68% and 0.52% and 0.54%	82.9%	47.4%	21%	0.882	0.523	0.220	A490 (MCF-7 cells [2]; 10 µM (DMSO 0.2%), single replicates): 0.193
O=c1[nH]cc(F)c(=O)[nH]1 [Compound 5-FU, 5-fluorouracil, reference compound]	1.09%	1.25	1.16% and 1.20% and 0.90%	75.5%	67.3%	55.5%	0.803	0.744	0.582	–
Cc1cn([C@H]2C[C@H](N=[N+]=[N-])[C@@H](CO)O2)c(=O)[nH]c1=O [AZT, reference compound]	–	–	–	–	–	–	–	–	–	CC50 (MAGI cells): > 10 µM; Cytotoxicity (MAGI cells): >10 µM; EC50 ([3]; MAGI assay, read-out: EC50): 29.7 nM; EC50 ([3]; average of numeric determinations, read-out: Avg. EC50): 29.7 nM
CC(C)=CCCC1(C)OC1CC/C(C)=C/CC/C(C)=C/Cc1c(O)c(C)c(C)oc1=O (centres unmarked) [Compound 3]	–	–	–	–	–	–	–	–	–	EC50 ([3]; Human immunodeficiency virus 1, MAGI, single determinations, read-out: Efficacy (EC50)): > 10000 nM
Cc1oc(=O)cc(O)c1C [Compound 1]	–	–	–	–	–	–	–	–	–	Cytotoxicity (MAGI cells; single determinations): >10 µM and 9.224 µM and 8.859 µM; EC50 ([3]; Human immunodeficiency virus 1, MAGI, average of numeric determinations, read-out: Avg. EC50): 76 nM
